# Measurements as given in ChEMBL document CHEMBL5370655.
# The source made the active and inactive calls. No cut-off for these calls is given here.
# Experiments:
# [1] = Induction of apoptosis in human H1975-TM cells assessed as apoptotic cells at 500 nM measured after 24 by Annexin V-FITC and propidium iodide staining based flow cytometric analysis (reference value: 7.08 %); assay type: functional; details: time 24 hrs
# [2] = AUC (0 to infinity) in Sprague-Dawley rat at 5 mg/kg, iv measured upto 24 hrs by HPLC-MS/MS analysis; assay type: ADME, organism-based; parameters: dose 5 mg/kg, time < 24 hrs, route iv; details: in vivo
# [3] = Tmax in Sprague-Dawley rat at 5 mg/kg, iv measured upto 24 hrs by HPLC-MS/MS analysis; assay type: ADME, organism-based; details: in vivo
# [4] = Toxicity in BALB/c mouse xenografted with human H1975-TM cells assessed as change in body weight at 25 to 100 mg/kg, po measured after 25 days; assay type: organism-based; details: in vivo, 600 h, dose 25-100 mg/kg, time 25 day
# [5] = target: Epidermal growth factor receptor (Homo sapiens, UniProt P00533, L858R)
# [6] = Toxicity in BALB/c mouse xenografted with human H1975-TM cells assessed as appearance of lesions in liver at 25 to 100 mg/kg, po measured after 25 days by hematoxylin-eosin staining based analysis; assay type: organism-based; details: in vivo, 600 h, dose 25-100 mg/kg, time 25 day
# [7] = Half life in Sprague-Dawley rat at 5 mg/kg, iv measured upto 24 hrs by HPLC-MS/MS analysis; assay type: ADME, organism-based; details: in vivo
# [8] = Half life in Sprague-Dawley rat at 50 mg/kg, po measured upto 24 hrs by HPLC-MS/MS analysis; assay type: ADME, organism-based; details: in vivo
# [9] = Induction of cell cycle arrest in human H1975-TM cells assessed as accumulation at S phase at 50 nM measured after 24 hrs by RNase A/propidium iodide staining based flow cytometric analysis (reference value: 18.1 %); assay type: functional
# H1975-TM [10] = experiment: Downregulation of AKT level in human H1975-TM cells at 50 to 1000 nM measured after 24 hrs by Western blot analysis; assay type: functional, cell-based; details: dose 50-1000 nM
# [11] = Induction of cell cycle arrest in human H1975-TM cells assessed as accumulation at G0/G1 phase at 500 nM measured after 24 hrs by RNase A/propidium iodide staining based flow cytometric analysis (reference value: 64.3 %); assay type: functional
# [12] = Induction of cell cycle arrest in human H1975-TM cells assessed as accumulation at G0/G1 phase at 250 nM measured after 24 hrs by RNase A/propidium iodide staining based flow cytometric analysis (reference value: 64.3 %); assay type: functional
# [13] = AUC (0 to infinity) in Sprague-Dawley rat at 50 mg/kg, po measured upto 24 hrs by HPLC-MS/MS analysis; assay type: ADME, organism-based; parameters: dose 50 mg/kg, time < 24 hrs, route po; details: in vivo
# [14] = Cmax in Sprague-Dawley rat at 50 mg/kg, po measured upto 24 hrs by HPLC-MS/MS analysis; assay type: ADME, organism-based; parameters: dose 50 mg/kg, time < 24 hrs, route po; details: in vivo
# [15] = MRT (0 to infinity) in Sprague-Dawley rat at 50 mg/kg, po measured upto 24 hrs by HPLC-MS/MS analysis; assay type: ADME, organism-based; details: in vivo
# [16] = target: T1, Epidermal growth factor receptor (Homo sapiens, UniProt P00533, C797S/L858R/T790M)
# [17] = Antitumor activity against human H1975-TM cells xenografted in BALB/c mouse assessed as tumor growth inhibition at 100 mg/kg, po measured after 25 days; assay type: functional; details: time 25 day
# [18] = Toxicity in BALB/c mouse xenografted with human H1975-TM cells assessed as appearance of lesions in lung at 25 to 100 mg/kg, po measured after 25 days by hematoxylin-eosin staining based analysis; assay type: organism-based; details: in vivo, 600 h, dose 25-100 mg/kg, time 25 day
# [19] = target: T1, Epidermal growth factor receptor; remark: listed apart in the source
# [20] = Induction of cell cycle arrest in human H1975-TM cells assessed as accumulation at G0/G1 phase at 50 nM measured after 24 hrs by RNase A/propidium iodide staining based flow cytometric analysis (reference value: 64.3 %); assay type: functional
# H1975-TM [21] = experiment: Downregulation of EGFR phosphorylation in human H1975-TM cells at 50 to 1000 nM measured after 24 hrs by Western blot analysis; assay type: functional, cell-based; details: dose 50-1000 nM
# [22] = Induction of cell cycle arrest in human H1975-TM cells assessed as accumulation at G2/M phase at 500 nM measured after 24 hrs by RNase A/propidium iodide staining based flow cytometric analysis (reference value: 17.6 %); assay type: functional
# [23] = Induction of cell cycle arrest in human H1975-TM cells assessed as accumulation at G2/M phase at 250 nM measured after 24 hrs by RNase A/propidium iodide staining based flow cytometric analysis (reference value: 17.6 %); assay type: functional
# [24] = Inhibition of colony formation in human H1975-TM cells at 250 nM incubated for 10 days by crystal violet staining based analysis; assay type: functional; details: time 10 day
# [25] = Tmax in Sprague-Dawley rat at 50 mg/kg, po measured upto 24 hrs by HPLC-MS/MS analysis; assay type: ADME, organism-based; details: in vivo
# PC-9 = experiment: Antiproliferative activity against human PC-9 cells assessed as inhibition of cell growth measured after 72 hrs by CCK8 assay; assay type: functional, cell-based; details: PC-9, 72 h
# NCI-H1975 = experiment: Antiproliferative activity against human NCI-H1975 cells assessed as inhibition of cell growth measured after 72 hrs by CCK8 assay; assay type: functional, cell-based; details: NCI-H1975, 72 h
# [26] = Induction of cell cycle arrest in human H1975-TM cells assessed as accumulation at S phase at 500 nM measured after 24 hrs by RNase A/propidium iodide staining based flow cytometric analysis (reference value: 18.1 %); assay type: functional
# [27] = target: Epidermal growth factor receptor (Homo sapiens, UniProt P00533, C797S/EX19DEL/T790M)
# [28] = Oral bioavailability in Sprague-Dawley rat at 50 mg/kg measured upto 24 hrs by HPLC-MS/MS analysis; assay type: ADME, organism-based; details: in vivo
# [29] = Cmax in Sprague-Dawley rat at 5 mg/kg, iv measured upto 24 hrs by HPLC-MS/MS analysis; assay type: ADME, organism-based; parameters: time < 24 hrs, dose 5 mg/kg, route iv; details: in vivo
# [30] = Induction of apoptosis in human H1975-TM cells assessed as apoptotic cells at 50 nM measured after 24 by Annexin V-FITC and propidium iodide staining based flow cytometric analysis (reference value: 7.08 %); assay type: functional; details: time 24 hrs
# [31] = Induction of apoptosis in human H1975-TM cells assessed as apoptotic cells at 250 nM measured after 24 by Annexin V-FITC and propidium iodide staining based flow cytometric analysis (reference value: 7.08 %); assay type: functional; details: time 24 hrs
# [32] = Toxicity in BALB/c mouse xenografted with human H1975-TM cells assessed as appearance of lesions in heart at 25 to 100 mg/kg, po measured after 25 days by hematoxylin-eosin staining based analysis; assay type: organism-based; details: in vivo, 600 h, dose 25-100 mg/kg, time 25 day
# H1975-TM [33] = experiment: Downregulation of ERK level in human H1975-TM cells at 50 to 1000 nM measured after 24 hrs by Western blot analysis; assay type: functional, cell-based; details: dose 50-1000 nM
# [34] = target: Epidermal growth factor receptor (Homo sapiens, UniProt P00533, L858R/T790M); experiment: Inhibition of EGFR L858R/T790M double mutant (unknown origin) using polyE4Y1 as substrate incubated for 5 mins with compound followed by substrate addition measured after 60 mins in presence of ATP by ADP-Glo reagent based assay
# Chain of Epidermal growth factor receptor (Homo sapiens, UniProt P00533, L858R/T790M) (P00533 25-1210 T790M/L858R limits assumed): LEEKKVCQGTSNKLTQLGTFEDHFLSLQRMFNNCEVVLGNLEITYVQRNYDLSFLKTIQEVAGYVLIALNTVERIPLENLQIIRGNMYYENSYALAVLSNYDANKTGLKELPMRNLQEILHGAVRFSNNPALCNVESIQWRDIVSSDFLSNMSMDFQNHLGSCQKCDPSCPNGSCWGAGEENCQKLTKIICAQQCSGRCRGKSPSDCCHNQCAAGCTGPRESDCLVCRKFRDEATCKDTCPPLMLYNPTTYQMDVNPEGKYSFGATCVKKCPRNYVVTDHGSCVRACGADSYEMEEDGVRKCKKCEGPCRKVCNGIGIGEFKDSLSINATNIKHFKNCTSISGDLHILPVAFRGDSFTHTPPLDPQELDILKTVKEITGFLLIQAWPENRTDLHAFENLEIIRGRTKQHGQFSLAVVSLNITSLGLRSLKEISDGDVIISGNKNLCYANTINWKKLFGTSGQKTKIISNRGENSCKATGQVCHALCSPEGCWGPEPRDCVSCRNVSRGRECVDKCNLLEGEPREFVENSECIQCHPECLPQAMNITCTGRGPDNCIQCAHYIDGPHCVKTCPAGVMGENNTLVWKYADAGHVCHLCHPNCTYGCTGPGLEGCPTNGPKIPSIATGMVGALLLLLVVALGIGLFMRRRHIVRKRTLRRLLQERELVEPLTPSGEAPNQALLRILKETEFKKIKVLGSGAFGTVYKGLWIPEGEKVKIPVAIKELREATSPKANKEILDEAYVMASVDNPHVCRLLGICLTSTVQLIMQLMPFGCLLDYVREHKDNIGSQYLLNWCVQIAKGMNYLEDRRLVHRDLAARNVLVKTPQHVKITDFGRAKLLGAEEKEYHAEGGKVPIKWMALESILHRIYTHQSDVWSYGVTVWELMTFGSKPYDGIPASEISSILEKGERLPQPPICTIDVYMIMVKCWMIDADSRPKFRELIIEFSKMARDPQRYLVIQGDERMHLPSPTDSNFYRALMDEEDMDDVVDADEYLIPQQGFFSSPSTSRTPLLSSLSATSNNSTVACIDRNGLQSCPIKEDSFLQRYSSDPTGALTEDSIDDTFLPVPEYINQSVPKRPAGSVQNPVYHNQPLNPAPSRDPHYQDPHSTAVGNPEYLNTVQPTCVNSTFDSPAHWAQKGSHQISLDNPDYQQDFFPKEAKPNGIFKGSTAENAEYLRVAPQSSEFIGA
# T1 sequence (P00533 25-1210 T790M/C797S/L858R limits assumed): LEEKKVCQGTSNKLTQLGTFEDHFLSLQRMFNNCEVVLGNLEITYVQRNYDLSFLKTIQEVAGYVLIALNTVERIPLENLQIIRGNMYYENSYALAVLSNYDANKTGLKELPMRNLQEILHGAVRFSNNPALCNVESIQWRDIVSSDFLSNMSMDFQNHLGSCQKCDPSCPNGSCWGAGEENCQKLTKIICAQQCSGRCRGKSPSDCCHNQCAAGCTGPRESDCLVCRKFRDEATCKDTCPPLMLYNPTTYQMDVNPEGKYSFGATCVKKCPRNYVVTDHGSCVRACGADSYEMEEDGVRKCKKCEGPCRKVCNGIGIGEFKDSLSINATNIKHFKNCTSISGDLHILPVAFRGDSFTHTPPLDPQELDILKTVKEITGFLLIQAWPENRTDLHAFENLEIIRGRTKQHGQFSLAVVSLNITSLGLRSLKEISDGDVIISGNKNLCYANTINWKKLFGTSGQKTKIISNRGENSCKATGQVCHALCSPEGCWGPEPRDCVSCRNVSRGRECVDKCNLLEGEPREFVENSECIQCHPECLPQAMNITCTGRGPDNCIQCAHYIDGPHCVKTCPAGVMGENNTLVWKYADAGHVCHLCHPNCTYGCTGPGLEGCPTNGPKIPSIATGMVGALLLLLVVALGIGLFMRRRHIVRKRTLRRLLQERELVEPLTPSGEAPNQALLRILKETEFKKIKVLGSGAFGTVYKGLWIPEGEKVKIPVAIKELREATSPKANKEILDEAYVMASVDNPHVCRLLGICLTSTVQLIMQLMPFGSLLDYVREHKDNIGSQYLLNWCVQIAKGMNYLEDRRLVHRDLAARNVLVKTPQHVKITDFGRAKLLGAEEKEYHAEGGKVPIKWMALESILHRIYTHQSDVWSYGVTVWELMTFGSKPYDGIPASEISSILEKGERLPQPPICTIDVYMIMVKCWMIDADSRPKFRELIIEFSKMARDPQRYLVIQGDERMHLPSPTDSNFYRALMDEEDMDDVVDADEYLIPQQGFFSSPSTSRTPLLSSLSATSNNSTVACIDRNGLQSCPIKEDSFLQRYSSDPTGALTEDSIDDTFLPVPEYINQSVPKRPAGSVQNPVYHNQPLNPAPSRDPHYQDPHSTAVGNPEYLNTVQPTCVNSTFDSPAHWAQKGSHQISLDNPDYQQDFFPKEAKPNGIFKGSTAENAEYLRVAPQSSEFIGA
# Chain of Epidermal growth factor receptor (Homo sapiens, UniProt P00533, C797S/EX19DEL/T790M) (P00533 whole entry, looked up, stated change not applied): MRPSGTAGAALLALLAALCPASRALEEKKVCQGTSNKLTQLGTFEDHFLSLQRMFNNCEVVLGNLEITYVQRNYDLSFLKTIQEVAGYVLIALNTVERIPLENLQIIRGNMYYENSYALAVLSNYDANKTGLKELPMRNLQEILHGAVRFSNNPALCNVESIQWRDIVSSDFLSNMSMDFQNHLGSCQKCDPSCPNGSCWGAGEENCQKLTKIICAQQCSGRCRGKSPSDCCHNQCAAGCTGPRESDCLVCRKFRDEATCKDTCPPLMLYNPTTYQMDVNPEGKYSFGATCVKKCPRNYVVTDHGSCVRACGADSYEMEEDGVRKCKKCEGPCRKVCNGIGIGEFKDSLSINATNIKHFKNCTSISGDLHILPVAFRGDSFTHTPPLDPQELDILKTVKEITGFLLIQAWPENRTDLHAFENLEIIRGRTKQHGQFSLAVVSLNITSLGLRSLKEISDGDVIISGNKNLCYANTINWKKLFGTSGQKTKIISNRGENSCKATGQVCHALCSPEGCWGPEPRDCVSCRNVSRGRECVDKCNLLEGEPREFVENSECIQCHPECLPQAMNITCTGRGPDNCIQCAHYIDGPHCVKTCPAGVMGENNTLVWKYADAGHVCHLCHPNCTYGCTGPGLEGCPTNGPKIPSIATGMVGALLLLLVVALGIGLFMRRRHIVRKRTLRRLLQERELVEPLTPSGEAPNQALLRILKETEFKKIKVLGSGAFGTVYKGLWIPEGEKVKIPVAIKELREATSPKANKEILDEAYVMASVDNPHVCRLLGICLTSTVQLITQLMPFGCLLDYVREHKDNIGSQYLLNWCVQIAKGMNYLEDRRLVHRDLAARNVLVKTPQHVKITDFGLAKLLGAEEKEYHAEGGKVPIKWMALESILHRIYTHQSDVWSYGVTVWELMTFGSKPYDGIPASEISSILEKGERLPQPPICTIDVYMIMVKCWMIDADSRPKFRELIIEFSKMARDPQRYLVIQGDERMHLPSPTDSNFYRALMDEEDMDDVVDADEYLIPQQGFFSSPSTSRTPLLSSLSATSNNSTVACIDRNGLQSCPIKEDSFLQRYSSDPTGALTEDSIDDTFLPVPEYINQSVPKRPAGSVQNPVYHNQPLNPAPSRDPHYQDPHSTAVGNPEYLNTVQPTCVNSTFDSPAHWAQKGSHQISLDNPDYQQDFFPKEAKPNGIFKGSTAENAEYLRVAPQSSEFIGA
# Chain of Epidermal growth factor receptor (Homo sapiens, UniProt P00533, L858R) (P00533 25-1210 L858R limits assumed): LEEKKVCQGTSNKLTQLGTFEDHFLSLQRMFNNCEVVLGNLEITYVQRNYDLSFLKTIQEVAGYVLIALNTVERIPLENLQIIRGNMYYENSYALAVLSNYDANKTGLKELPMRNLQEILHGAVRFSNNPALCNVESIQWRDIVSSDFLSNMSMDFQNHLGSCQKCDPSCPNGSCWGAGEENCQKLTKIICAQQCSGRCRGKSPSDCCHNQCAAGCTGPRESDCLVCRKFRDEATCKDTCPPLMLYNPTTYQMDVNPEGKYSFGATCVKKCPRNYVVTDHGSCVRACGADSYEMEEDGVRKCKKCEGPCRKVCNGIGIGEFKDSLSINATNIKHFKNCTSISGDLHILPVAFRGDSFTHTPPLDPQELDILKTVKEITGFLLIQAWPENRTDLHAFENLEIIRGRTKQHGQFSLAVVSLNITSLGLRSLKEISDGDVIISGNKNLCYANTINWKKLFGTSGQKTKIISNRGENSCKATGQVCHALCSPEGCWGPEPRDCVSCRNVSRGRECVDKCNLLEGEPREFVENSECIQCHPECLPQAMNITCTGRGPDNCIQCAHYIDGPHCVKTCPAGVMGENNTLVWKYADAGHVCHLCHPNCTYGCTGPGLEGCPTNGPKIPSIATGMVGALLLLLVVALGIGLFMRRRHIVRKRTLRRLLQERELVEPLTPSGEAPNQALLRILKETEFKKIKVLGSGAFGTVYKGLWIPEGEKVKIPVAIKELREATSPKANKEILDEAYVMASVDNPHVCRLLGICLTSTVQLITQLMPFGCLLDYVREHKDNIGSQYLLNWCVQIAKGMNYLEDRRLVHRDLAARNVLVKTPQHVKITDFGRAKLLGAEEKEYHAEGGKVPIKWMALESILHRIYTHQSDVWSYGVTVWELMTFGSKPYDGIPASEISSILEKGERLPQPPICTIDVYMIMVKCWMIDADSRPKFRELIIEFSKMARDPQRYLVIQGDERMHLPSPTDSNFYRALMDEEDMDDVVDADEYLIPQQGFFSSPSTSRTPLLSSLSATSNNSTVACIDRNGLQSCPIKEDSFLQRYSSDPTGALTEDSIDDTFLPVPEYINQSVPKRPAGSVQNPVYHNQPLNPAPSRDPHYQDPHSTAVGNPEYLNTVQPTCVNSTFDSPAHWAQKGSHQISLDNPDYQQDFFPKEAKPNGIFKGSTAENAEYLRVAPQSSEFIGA
structure (smiles),measurement,setting,value
CCS(=O)(=O)N1CCC(c2nc(-c3ccc(F)cc3)c(-c3ccnc(Nc4ccc5c(ccn5CCN(C)C)c4)n3)s2)CC1,Activity,[1],27.8%
same,AUC(0-inf),[2],1560 ng·h/mL
same,Tmax,[3],4.8 min
same,Activity,[4],Non-Toxic
same,IC50,[5],3 nM
same,Activity,[6],Non-Toxic
same,half-life,[7],4.7 h
same,half-life,[8],8.49 h
same,Activity,[9],17.3%
same,Activity,H1975-TM [10],Active
same,Activity,[11],76.3%
same,Activity,[12],70.3%
same,AUC(0-inf),[13],4780 ng·h/mL
same,Cmax,[14],404 ng/mL
same,MRT inf,[15],5.43 h
same,IC50,[16],261 nM
same,TGI,[17],62.9%
same,Activity,[18],Non-Toxic
same,IC50,[19],5.1 nM
same,Activity,[20],68.3%
same,Activity,H1975-TM [21],Active
same,Activity,[22],13.4%
same,Activity,[23],14%
same,inhibition (INH),[24],100%
same,Tmax,[25],2 h
same,IC50,PC-9,5 nM
same,IC50,NCI-H1975,210 nM
same,Activity,[26],10.3%
same,IC50,[27],33 nM
same,bioavailability,[28],30.7%
same,Cmax,[29],761 ng/mL
same,Activity,[30],19.07%
same,Activity,[31],19.88%
same,Activity,[32],Non-Toxic
same,Activity,H1975-TM [33],Active
same,IC50,[34],21 nM
